Reference: patent US20250136576A1, “Heterocyclic Compounds and Uses Thereof” (ACEA Therapeutics, Inc., priority 2021, published 2025)
pIC50: −log10 of the molar value.

Each compound was assayed on KM12-luc cells (assay: Cell proliferation and growth inhibition assay (CCK-8) in KM12-luc). Conditions: KM12-Luc, 72 h, KM12-luc cells, treated with test compounds for 72 hrs, CCK-8 viability; read-out: NTRK IC50 in KM12-luc.
Format: cell-based
Protocol: MV-4-11 and H1975 cells were obtained from the American Type Culture Collection and KM12-luc cells were obtained from JCRB Cell Bank. All cell lines were maintained at 37° C. with 5% C02, in media supplemented with 10% fetal bovine serum and penicillin (100 units/mL) and streptomycin (100 μg/mL). MV-4-11 cells were maintained in Iscove's Modified Dubecco's Medium, H1975 cells were cultured with RPMI 1640 media, and KM12-luc cells were maintained in Dulbecco's Modification of Eagle's Medium. CCK-8 reagent was obtained from Yeasen. Cell proliferation was assessed by CCK-8 assay (Yeasen) per the manufacturer's instructions. […] Cell viability was assayed by incubating the cells with CCK-8 reagent for 1-4 hrs. Absorbance was measured at OD450 using the Beckman DTX880. The data was calculated using GraphPad Prism version 6.01. The IC50 values were fitted using a non-linear regression model with a sigmoidal dose response.

Compared with `CC(=O)Nc1cccc(Oc2nc(Nc3ccc(N(C)CCN(C)C)c(F)c3)nc3[nH]ccc23)c1` [Compound 181a, N-(3-((2-((4-((2-(dimethylamino)ethyl)(methyl)amino)-3-fluorophenyl)amino)-7H-pyrrolo[2,3-d]pyrimidin-4-yl)oxy)phenyl)acetamide], `CNc1cccc(Oc2nc(Nc3ccc(N4CCN(C)CC4)c(F)c3)nc3[nH]ccc23)c1` [Compound 177, N-(3-fluoro-4-(4-methylpiperazin-1-yl)phenyl)-4-(3-(methylamino)phenoxy)-7H-pyrrolo[2,3-d]pyrimidin-2-amine] is higher in pIC50: < 5.00 for the first, 6.88 for the second. The second is the more potent here.

First: CC(=O)Nc1cc(Nc2ncc(C(F)(F)F)c(-c3cn(C)c4cc(F)ccc34)n2)ccc1N(C)CCN(C)C [Compound 333, N-(2-((2-(dimethylamino)ethyl)(methyl)amino)-5-((4-(6-fluoro-1-methyl-1H-indol-3-yl)-5-(trifluoromethyl)pyrimidin-2-yl)amino)phenyl)acetamide]
Second: COc1ccc2c(c1)c(-c1nc(Nc3ccc(N(C)CCN(C)C)c(NC(C)=O)c3)ncc1C(F)(F)F)cn2C [Compound 357, N-(2-((2-(dimethylamino)ethyl)(methyl)amino)-5-((4-(5-methoxy-1-methyl-1H-indol-3-yl) 5-(trifluoromethyl)pyrimidin-2-yl)amino)phenyl)acetamide]
The pIC50 of the first is 1.58 log units higher: 7.55 for the first, 5.97 for the second. The first is the more potent here.

First: CC(=O)Nc1cc(Nc2ncc(F)c(-c3cn(C)c4ccc(F)cc34)n2)ccc1N(C)CCN(C)C [Compound 265, N-(2-((2-(dimethylamino)ethyl)(methyl)amino)-5-((5-fluoro-4-(5-fluoro-1-methyl-1H-indol-3-yl)pyrimidin-2-yl)amino)phenyl)acetamide]
Second: CC(=O)Nc1cc(Nc2ncc(F)c(-c3c[nH]c4cc(F)ccc34)n2)ccc1N(C)CCN(C)C [Compound 266, N-(2-((2-(dimethylamino)ethyl)(methyl)amino)-5-((5-fluoro-4-(6-fluoro-1H-indol-3-yl)pyrimidin-2-yl)amino)phenyl)acetamide]
The pIC50 of the first is 0.26 log units higher: 6.38 for the first, 6.12 for the second.

Going from `CC(=O)Nc1cc(Nc2ncc(C(F)(F)F)c(-c3c[nH]c4c(F)cccc34)n2)c(F)cc1N(C)CCN(C)C` [Compound 340, N-(2-((2-(dimethylamino)ethyl)(methyl)amino)-4-fluoro-5-((4-(7-fluoro-1H-indol-3-yl)-5-(trifluoromethyl)pyrimidin-2-yl)amino)phenyl)acetamide] to `CC(=O)Nc1cc(Nc2ncc(C(F)(F)F)c(-c3c[nH]c4c(C)cccc34)n2)ccc1N(CCN(C)C)C(C)=O` [Compound 363, N-(2-acetamido-4-((4-(7-methyl-1H-indol-3-yl)-5-(trifluoromethyl)pyrimidin-2-yl)amino)phenyl)-N-(2-(dimethylamino)ethyl)acetamide], the pIC50 falls from 7.24 to 7.03 (0.21 log units). The first is the more potent here.

First: CC(=O)Nc1cc(Nc2ncc(Cl)c(-c3cn(C)c4c(C)cccc34)n2)ccc1N(C)CCN(C)C [Compound 429, N-(5-((5-chloro-4-(1,7-dimethyl-1H-indol-3-yl)pyrimidin-2-yl)amino)-2-((2-(dimethylamino)ethyl)(methyl)amino)phenyl)acetamide]
Second: COc1cccc2c(-c3nc(Nc4ccc(N(C)CCN(C)C)c(NC(C)=O)c4)ncc3Cl)cn(C)c12 [Compound 434, N-(5-(5-chloro-4-(7-methoxy-1-methyl-1H-indol-3-yl)pyrimidin-2-ylamino)-2-((2-(dimethylamino)ethyl)(methyl)amino)phenyl)acetamide]
The pIC50 of the first is 0.69 log units lower: 6.32 for the first, 7.01 for the second.

Compared with `CNc1cc(Nc2ncc(OC)c(-c3cn(-c4ncc(OC)c(-c5c[nH]c6ccccc56)n4)c4ccccc34)n2)ccc1N(C)CCN(C)C` [Compound 273b, N^4-(4-(1-(4-(1H-indol-3-yl)-5-methoxypyrimidin-2-yl)-1H-indol-3-yl)-5-methoxypyrimidin-2-yl)-N^1-(2-(dimethylamino)ethyl)-N^1,N^2-dimethylbenzene-1,2,4-triamine], `CNc1cc(Nc2ncc(OC)c(-c3cn(C)c4ccccc34)n2)ccc1N(C)CCN(C)C` [Compound 275, N^1-(2-(dimethylamino)ethyl)-N^4-(5-methoxy-4-(1-methyl-1H-indol-3-yl)pyrimidin-2-yl)-N^1,N^2-dimethylbenzene-1,2,4-triamine] is 0.74 log units higher in pIC50: 5.48 for the first, 6.22 for the second.

`CN1CCN(c2ccc(C(=O)Nc3c[nH]c4cnc(Nc5cc(F)cc(F)c5)nc34)c(NC3CCOCC3)c2)CC1` [Compound 491, N-(2-((3,5-difluorophenyl)amino)-5H-pyrrolo[3,2-d]pyrimidin-7-yl)-4-(4-methylpiperazin-1-yl)-2-((tetrahydro-2H-pyran-4-yl)amino)benzamide] and `CC(=O)Nc1cc(Nc2nc3c(c(-c4cn(C)c5ccccc45)n2)COCC3)cc(F)c1N(C)CCN(C)C` [Compound 257b, N-(2-((2-(dimethylamino)ethyl)(methyl)amino)-3-fluoro-5-((4-(1-methyl-1H-indol-3-yl)-7,8-dihydro-5H-pyrano[4,3-d]pyrimidin-2-yl)amino)phenyl)acetamide] cannot be ordered by pIC50: < 5.48 for the first, < 5.00 for the second.

`CCN(CCN(C)C)c1c(F)cc(Nc2nc3c(c(-c4cn(C)c5ccccc45)n2)CCO3)cc1NC(C)=O` [Compound 258d, N-(2-((2-(dimethylamino)ethyl)(ethyl)amino)-3-fluoro-5-((4-(1-methyl-1H-indol-3-yl)-5,6-dihydrofuro[2,3-d]pyrimidin-2-yl)amino)phenyl)acetamide] and `COc1nc(Nc2cc(F)c(N(C)CCN(C)C)c(NC(C)=O)c2)nc(-c2cn(C)c3ccccc23)c1OC` [Compound 291b, N-(5-((4,5-dimethoxy-6-(1-methyl-1H-indol-3-yl)pyrimidin-2-yl)amino)-2-((2-(dimethylamino)ethyl)(methyl)amino)-3-fluorophenyl)acetamide] cannot be ordered by pIC50: < 6.00 for the first, 5.85 for the second.

Compared with `COc1cnc(Nc2ccc(N(C)CCN(C)C)c(NC(C)=O)c2)nc1-c1cn(C)c2ccccc12` [Compound 274, N-(2-((2-(dimethylamino)ethyl)(methyl)amino)-5-(5-methoxy-4-(1-methyl-1H-indol-3-yl)pyrimidin-2-ylamino)phenyl)acetamide], `COc1cnc(Nc2ccc(N(C)CCN(C)C)c(NC(C)=O)c2)nc1-c1cn(C)c2cccc(F)c12` [Compound 277, N-(2-((2-(dimethylamino)ethyl)(methyl)amino)-5-((4-(4-fluoro-1-methyl-1H-indol-3-yl)-5-methoxypyrimidin-2-yl)amino)phenyl)acetamide] is 0.46 log units lower in pIC50: 6.89 for the first, 6.43 for the second. The first is the more potent here.

Compared with `CC(=O)Nc1cc(Nc2ncc(C(F)(F)F)c(-c3cn(C)c4ccccc34)n2)cc(F)c1N(C)CCN(C)C` [Compound 308, N-(2-((2-(dimethylamino)ethyl)(methyl)amino)-3-fluoro-5-((4-(1-methyl-1H-indol-3-yl)-5-(trifluoromethyl)pyrimidin-2-yl)amino)phenyl)acetamide], `CN(C)CCN(C)c1ccc(Nc2ncc(F)c(-c3cn(C)c4ccccc34)n2)cc1N` [Compound 262, N^1-(2-(dimethylamino)ethyl)-N^4-(5-fluoro-4-(1-methyl-1H-indol-3-yl)pyrimidin-2-yl)-N-methylbenzene-1,2,4-triamine] is 0.84 log units lower in pIC50: 6.86 for the first, 6.02 for the second. The first is the more potent here.

First: CCN(CCN(C)C)c1ccc(Nc2ncc(C(F)(F)F)c(-c3cn(C)c4c(F)cccc34)n2)cc1N [Compound 349, N^1-(2-(dimethylamino)ethyl)-N^1-ethyl-N^4-(4-(7-fluoro-1-methyl-1H-indol-3-yl)-5-(trifluoromethyl)pyrimidin-2-yl)benzene-1,2,4-triamine]
Second: Cc1cccc2c(-c3nc(Nc4ccc(N5CC[C@@H](N(C)C)C5)c(N)c4)ncc3C(F)(F)F)c[nH]c12 [Compound R-367, (R)-4-(3-(dimethylamino)pyrrolidin-1-yl)-N^1-(4-(7-methyl-1H-indol-3-yl)-5-(trifluoromethyl)pyrimidin-2-yl)benzene-1,3-diamine]
The pIC50 of the first is 1.63 log units lower: 6.61 for the first, 8.24 for the second. The second is the more potent here.

Going from `Cc1nc2cc(Nc3ncc(Cl)c(-c4cn(C)c5ccccc45)n3)ccc2n1CCN(C)C` [Compound 400b, N-(5-chloro-4-(1-methyl-1H-indol-3-yl)pyrimidin-2-yl)-1-(2-(dimethylamino)ethyl)-2-methyl-1H-benzo[d]imidazol-5-amine] to `CN(C)CCN(C)c1ccc(Nc2nc(-c3cn(C)c4ccccc34)c3cc[nH]c3n2)cc1NCC(F)(F)F` [Compound 194, N^1-(2-(dimethylamino)ethyl)-N^1-methyl-N^4-(4-(1-methyl-1H-indol-3-yl)-7H-pyrrolo[2,3-d]pyrimidin-2-yl)-N^2-(2,2,2-trifluoroethyl)benzene-1,2,4-triamine], the pIC50 falls from 7.15 to 6.14 (1.01 log units). The first is the more potent here.

Going from `COc1cccc2c(-c3ncc(C(F)(F)F)c(Nc4ccc(N5CC[C@H](N(C)C)C5)c(NC(C)=O)c4)n3)c[nH]c12` [Compound S-382b, (S)—N-(2-(3-(dimethylamino)pyrrolidin-1-yl)-5-((2-(7-methoxy-1H-indol-3-yl)-5-(trifluoromethyl)pyrimidin-4-yl)amino)phenyl)acetamide] to `COc1cnc(Nc2ccc(N(C)CCN(C)C)c(NC(C)=O)c2)nc1-c1c[nH]c2ccccc12` [Compound 272a, N-(5-(4-(1H-indol-3-yl)-5-methoxypyrimidin-2-ylamino)-2-((2-(dimethylamino)ethyl)(methyl)amino)phenyl)acetamide], the pIC50 rises from 6.46 to 7.39 (0.93 log units).

Same assay, conditions: KM12-Luc, 72 h, read-out: NTRK IC50 in KM12-luc

With `CCN(CCN(C)C)c1ccc(Nc2nc(-c3cn(C)c4ccccc34)c3cc[nH]c3n2)cc1NC(C)=O` [Compound 212c, N-(2-((2-(dimethylamino)ethyl)(ethyl)amino)-5-((4-(1-methyl-1H-indol-3-yl)-7H-pyrrolo[2,3-d]pyrimidin-2-yl)amino)phenyl)acetamide] the pIC50 was 7.36.
